From publication PMC11702208 (RSC Advances, 2025)
Values belong to the compound of their own block, whether it stands above or below them.

Assays:
SR = assay: NCI cytotoxicity screen; assay type: cell-based, human; settings: 10.0 μM one dose
COX-2 = molecular target: T1, COX-2 (Ovis aries, UniProt P79208); assay: Colorimetric COX; assay type: biochemical, ovine
T1 sequence (P79208 17-603): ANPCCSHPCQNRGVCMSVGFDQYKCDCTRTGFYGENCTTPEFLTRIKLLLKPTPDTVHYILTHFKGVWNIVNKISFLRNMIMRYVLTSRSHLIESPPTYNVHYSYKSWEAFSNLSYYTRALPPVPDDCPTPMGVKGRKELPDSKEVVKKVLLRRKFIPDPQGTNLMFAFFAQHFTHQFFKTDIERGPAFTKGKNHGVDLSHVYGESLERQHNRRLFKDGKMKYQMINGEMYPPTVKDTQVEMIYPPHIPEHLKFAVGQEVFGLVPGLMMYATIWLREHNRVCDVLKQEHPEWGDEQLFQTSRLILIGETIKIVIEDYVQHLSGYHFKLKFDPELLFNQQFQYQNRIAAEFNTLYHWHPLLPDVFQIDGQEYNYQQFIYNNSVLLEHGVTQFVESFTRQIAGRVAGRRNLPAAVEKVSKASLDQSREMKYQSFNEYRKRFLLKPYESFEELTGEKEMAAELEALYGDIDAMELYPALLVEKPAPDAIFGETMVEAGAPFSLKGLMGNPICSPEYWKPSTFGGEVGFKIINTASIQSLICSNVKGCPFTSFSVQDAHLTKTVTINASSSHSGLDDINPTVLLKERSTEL

HER2 = HER2 (Homo sapiens, UniProt P04626); assay: HER2 tyrosine kinase assay; assay type: biochemical; settings: IC50 HER2 inhibition
HER2, sequence (P04626 23-1255): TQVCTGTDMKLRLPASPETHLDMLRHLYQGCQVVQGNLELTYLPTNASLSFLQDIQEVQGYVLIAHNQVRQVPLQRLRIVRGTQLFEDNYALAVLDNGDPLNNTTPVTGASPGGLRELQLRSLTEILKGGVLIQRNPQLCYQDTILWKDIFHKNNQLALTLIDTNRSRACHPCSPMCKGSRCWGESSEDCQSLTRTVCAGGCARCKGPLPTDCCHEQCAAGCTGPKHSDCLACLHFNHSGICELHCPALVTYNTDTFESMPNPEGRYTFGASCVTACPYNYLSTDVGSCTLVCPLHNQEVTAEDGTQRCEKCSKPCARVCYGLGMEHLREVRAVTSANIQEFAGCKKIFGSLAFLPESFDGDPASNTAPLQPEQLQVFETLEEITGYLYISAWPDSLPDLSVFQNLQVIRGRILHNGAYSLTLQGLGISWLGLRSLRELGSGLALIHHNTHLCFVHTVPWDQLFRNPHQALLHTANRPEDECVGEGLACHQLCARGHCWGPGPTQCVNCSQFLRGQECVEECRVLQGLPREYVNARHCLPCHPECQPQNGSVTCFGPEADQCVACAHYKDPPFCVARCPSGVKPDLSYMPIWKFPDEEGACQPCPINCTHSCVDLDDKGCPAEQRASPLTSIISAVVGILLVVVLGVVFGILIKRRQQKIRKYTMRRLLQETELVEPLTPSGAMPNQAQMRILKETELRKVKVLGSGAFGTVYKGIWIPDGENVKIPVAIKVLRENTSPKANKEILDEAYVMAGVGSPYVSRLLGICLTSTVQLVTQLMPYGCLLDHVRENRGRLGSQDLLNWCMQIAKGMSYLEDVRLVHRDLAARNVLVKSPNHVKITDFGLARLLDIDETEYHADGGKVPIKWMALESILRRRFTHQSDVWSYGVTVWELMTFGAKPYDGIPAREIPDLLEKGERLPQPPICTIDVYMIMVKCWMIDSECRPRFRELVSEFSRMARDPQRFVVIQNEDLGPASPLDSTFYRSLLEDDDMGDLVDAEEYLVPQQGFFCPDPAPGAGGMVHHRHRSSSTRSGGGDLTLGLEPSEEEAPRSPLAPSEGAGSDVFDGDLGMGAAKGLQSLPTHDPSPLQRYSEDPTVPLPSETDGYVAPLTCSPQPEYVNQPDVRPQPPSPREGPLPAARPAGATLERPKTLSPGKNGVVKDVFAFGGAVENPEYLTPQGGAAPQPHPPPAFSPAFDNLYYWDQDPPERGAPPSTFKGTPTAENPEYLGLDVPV

HS 578T = assay: NCI cytotoxicity screen; assay type: cell-based, human; settings: 10.0 μM one dose; HS-578T
SNB-75 = assay: NCI cytotoxicity screen; assay type: cell-based, human; settings: 10.0 μM one dose
NCI-H522 = assay: NCI cytotoxicity screen; assay type: cell-based, human; settings: 10.0 μM one dose
MDA-MB-435 = assay: NCI cytotoxicity screen; assay type: cell-based, human; settings: 10.0 μM one dose
SF-268 = assay: NCI cytotoxicity screen; assay type: cell-based, human; settings: 10.0 μM one dose
MDA-MB-468 = assay: NCI cytotoxicity screen; assay type: cell-based, human; settings: 10.0 μM one dose
MDA-MB-231/ATCC = assay: NCI cytotoxicity screen; assay type: cell-based, human; settings: 10.0 μM one dose; MDA-MB-231/ATCC
RXF 393 = assay: NCI cytotoxicity screen; assay type: cell-based, human; settings: 10.0 μM one dose
T-47D = assay: NCI cytotoxicity screen; assay type: cell-based, human; settings: 10.0 μM one dose; T-47D
KM12 = assay: NCI cytotoxicity screen; assay type: cell-based, human; settings: 10.0 μM one dose; KM-12
EGFR = EGFR (Homo sapiens, UniProt P00533); assay: biochemical; settings: IC50 EGFR inhibition
EGFR, sequence (P00533 25-1210): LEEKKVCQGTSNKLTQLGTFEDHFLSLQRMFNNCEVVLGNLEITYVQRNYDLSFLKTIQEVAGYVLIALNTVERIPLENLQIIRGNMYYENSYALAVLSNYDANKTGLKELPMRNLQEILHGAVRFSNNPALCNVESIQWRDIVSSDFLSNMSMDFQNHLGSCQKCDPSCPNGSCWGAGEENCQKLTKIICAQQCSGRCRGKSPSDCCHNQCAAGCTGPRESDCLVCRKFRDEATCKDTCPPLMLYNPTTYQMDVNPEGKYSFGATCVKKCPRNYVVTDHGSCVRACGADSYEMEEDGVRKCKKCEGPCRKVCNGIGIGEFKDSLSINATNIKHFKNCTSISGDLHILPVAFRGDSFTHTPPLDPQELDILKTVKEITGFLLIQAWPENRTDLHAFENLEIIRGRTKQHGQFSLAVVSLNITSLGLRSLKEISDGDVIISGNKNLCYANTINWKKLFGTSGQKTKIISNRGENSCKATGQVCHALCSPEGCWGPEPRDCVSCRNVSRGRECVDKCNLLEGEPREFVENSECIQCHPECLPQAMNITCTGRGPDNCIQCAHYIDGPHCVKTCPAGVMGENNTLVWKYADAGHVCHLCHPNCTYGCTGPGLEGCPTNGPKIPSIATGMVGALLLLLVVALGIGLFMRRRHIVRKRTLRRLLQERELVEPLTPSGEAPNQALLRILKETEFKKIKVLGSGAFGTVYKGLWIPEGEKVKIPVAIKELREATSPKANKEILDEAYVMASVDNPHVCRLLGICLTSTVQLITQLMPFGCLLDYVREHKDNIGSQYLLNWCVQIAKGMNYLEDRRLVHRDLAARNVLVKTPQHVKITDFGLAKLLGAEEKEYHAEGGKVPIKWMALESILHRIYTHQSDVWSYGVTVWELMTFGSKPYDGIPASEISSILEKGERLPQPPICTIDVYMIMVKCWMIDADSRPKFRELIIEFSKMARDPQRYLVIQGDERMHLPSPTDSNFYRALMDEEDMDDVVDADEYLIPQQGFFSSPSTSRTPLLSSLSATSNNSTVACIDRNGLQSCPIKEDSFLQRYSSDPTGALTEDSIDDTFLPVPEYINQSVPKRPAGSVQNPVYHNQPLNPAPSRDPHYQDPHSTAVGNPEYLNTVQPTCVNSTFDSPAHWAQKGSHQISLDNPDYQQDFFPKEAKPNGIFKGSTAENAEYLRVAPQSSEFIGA

UACC-62 = assay: NCI cytotoxicity screen; assay type: cell-based, human; settings: 10.0 μM one dose
MOLT-4 = assay: NCI cytotoxicity screen; assay type: cell-based, human; settings: 10.0 μM one dose
UO-31 = assay: NCI cytotoxicity screen; assay type: cell-based, human; settings: 10.0 μM one dose
MCF7 = assay: NCI cytotoxicity screen; assay type: cell-based, human; settings: 10.0 μM one dose; MCF-7
CAKI-1 = assay: NCI cytotoxicity screen; assay type: cell-based, human; settings: 10.0 μM one dose
LOX IMVI = assay: NCI cytotoxicity screen; assay type: cell-based, human; settings: 10.0 μM one dose
HT29 = assay: NCI cytotoxicity screen; assay type: cell-based, human; settings: 10.0 μM one dose; HT-29
SK-MEL-5 = assay: NCI cytotoxicity screen; assay type: cell-based, human; settings: 10.0 μM one dose
PC-3 = assay: NCI cytotoxicity screen; assay type: cell-based, human; settings: 10.0 μM one dose
A549/ATCC = assay: NCI cytotoxicity screen; assay type: cell-based, human; settings: 10.0 μM one dose; A549/ATCC
OVCAR-3 = assay: NCI cytotoxicity screen; assay type: cell-based, human; settings: 10.0 μM one dose; OVCAR-3
CDK9 = CDK9 (Homo sapiens, UniProt P50750); assay: biochemical; settings: IC50 CDK9 inhibition
CDK9, sequence (P50750 whole entry): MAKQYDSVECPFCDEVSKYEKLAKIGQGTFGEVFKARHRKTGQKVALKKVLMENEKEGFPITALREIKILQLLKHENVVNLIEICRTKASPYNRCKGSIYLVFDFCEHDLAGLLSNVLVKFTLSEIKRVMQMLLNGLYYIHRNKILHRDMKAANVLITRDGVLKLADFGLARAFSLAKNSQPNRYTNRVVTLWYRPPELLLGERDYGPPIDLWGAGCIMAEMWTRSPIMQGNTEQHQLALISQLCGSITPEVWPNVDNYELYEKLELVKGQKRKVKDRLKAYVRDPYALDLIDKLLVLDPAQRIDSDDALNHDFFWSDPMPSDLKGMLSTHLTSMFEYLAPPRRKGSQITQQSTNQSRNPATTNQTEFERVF
CDK9, sequence (O60563 whole entry partner): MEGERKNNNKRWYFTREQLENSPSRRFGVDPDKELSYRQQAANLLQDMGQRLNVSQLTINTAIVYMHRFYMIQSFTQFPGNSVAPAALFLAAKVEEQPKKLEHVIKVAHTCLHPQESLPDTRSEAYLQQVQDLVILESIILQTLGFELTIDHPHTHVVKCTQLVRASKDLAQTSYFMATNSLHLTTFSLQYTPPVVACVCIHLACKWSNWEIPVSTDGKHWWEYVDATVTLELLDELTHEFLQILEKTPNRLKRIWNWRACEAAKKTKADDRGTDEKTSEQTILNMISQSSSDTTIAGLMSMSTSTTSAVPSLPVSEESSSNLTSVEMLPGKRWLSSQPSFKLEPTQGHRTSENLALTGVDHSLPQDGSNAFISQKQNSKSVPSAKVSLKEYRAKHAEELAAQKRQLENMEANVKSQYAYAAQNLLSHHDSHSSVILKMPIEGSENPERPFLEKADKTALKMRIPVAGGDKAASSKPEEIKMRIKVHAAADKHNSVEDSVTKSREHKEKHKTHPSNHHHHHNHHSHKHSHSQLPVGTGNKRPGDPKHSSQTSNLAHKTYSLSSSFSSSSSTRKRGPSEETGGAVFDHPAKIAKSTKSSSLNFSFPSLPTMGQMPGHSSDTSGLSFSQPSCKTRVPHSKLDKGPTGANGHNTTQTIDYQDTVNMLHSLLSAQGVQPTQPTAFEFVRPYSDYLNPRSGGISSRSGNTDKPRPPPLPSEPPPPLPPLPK

EKVX = assay: NCI cytotoxicity screen; assay type: cell-based, human; settings: 10.0 μM one dose
59 cancer cell lines = assay: NCI cytotoxicity screen, full panel; assay type: cell-based, human; settings: 10.0 μM one dose, 59 cell lines
K-562 = settings: 10.0 μM one dose
SNB-19 = assay: NCI cytotoxicity screen; assay type: cell-based, human; settings: 10.0 μM one dose
CCRF-CEM = assay: NCI cytotoxicity screen; assay type: cell-based, human; settings: 10.0 μM one dose
HCT-15 = assay: NCI cytotoxicity screen; assay type: cell-based, human; settings: 10.0 μM one dose
NCI-H226 = assay: NCI cytotoxicity screen; assay type: cell-based, human; settings: 10.0 μM one dose
U251 = assay: NCI cytotoxicity screen; assay type: cell-based, human; settings: 10.0 μM one dose; U-251
DU-145 = assay: NCI cytotoxicity screen; assay type: cell-based, human; settings: 10.0 μM one dose
RPMI-8226 = assay: NCI cytotoxicity screen; assay type: cell-based, human; settings: 10.0 μM one dose
HCT-116 = assay: NCI cytotoxicity screen; assay type: cell-based, human; settings: 10.0 μM one dose
SF-295 = assay: NCI cytotoxicity screen; assay type: cell-based, human; settings: 10.0 μM one dose
NCI-H23 = assay: NCI cytotoxicity screen; assay type: cell-based, human; settings: 10.0 μM one dose
A498 = assay: NCI cytotoxicity screen; assay type: cell-based, human; settings: 10.0 μM one dose; A-498
[1] = system: Ovarian cancer subpanel tumor cell lines; assay: NCI cytotoxicity screen, subpanel; assay type: cell-based, human; settings: 10 μM; range over ovarian cancer cell lines
SF-539 = assay: NCI cytotoxicity screen; assay type: cell-based, human; settings: 10.0 μM one dose

- IC50 (COX-2): 15400 ± 320 nM
- IC50 (HER2): 229 nM
- IC50 (EGFR): 378 ± 9.26 nM
- IC50 (CDK9): 316 ± 7.76 nM
Structure (SMILES): Cc1ccc(C=NNC(=O)CSc2nc3ccccc3c(=O)n2Cc2ccc(S(N)(=O)=O)cc2)cc1 [Compound 9, 4-((2-((2-(2-(4-Methylbenzylidene)hydrazineyl)-2-oxoethyl)thio)-4-oxoquinazolin-3(4H)-yl)methyl)benzenesulfonamide]
- GI % (SR): 51%
- GI % (HS 578T): 12%
- GI % (SNB-75): 29%
- GI % (NCI-H522): 58%
- GI % (MDA-MB-435): 54%
- GI % (SF-268): 22%
- GI % (MDA-MB-468): 19%
- GI % (MDA-MB-231/ATCC): 11%
- GI % (RXF 393): 14%
- GI % (T-47D): 19%
- GI % (KM12): 14%
- GI % (UACC-62): 22%
- GI % (MOLT-4): 14%
- GI % (UO-31): 20%
- GI % (MCF7): 41%
- GI % (CAKI-1): 36%
- GI % (LOX IMVI): 18%
- GI % (HT29): 14%
- GI % (SK-MEL-5): 26%
- GI % (PC-3): 11%
- GI % (A549/ATCC): 15%
- GI % (OVCAR-3): 21%
- GI % (EKVX): 10%
- MG% (mean growth percent) (59 cancer cell lines): 88.5%
- GI % (K-562): 37%
- GI % (SNB-19): 11%
- GI % (CCRF-CEM): 13%
- GI % (HCT-15): 11%
- GI % (NCI-H226): 16%

Structure (SMILES): Cc1ccc(NC(=O)c2ccc(CN3CCN(C)CC3)cc2)cc1Nc1nccc(-c2cccnc2)n1 [Imatinib, reference compound]
- GI % (SR): 14.6%
- GI % (U251): 10.6%
- GI % (DU-145): 14.4%
- GI % (RPMI-8226): 12.6%
- GI % (HCT-116): 18.6%
- GI % (SF-295): 15.1%
- GI % (MDA-MB-468): 29.1%
- GI % (MDA-MB-231/ATCC): 11.2%
- GI % (NCI-H23): 17.1%
- GI % (A498): 13.7%
- GI % (T-47D): 18.6%
- GI % (MOLT-4): 18%
- GI % [1]: < 10%
- GI % (LOX IMVI): 11.6%
- GI % (HT29): 47.1%
- GI % (PC-3): 10.6%
- GI % (EKVX): 15.7%
- MG% (mean growth percent) (59 cancer cell lines): 92.62%
- MG% (mean growth percent) (59 cancer cell lines; listed as imatinib): 92.6%
- GI % (HCT-15): 11.5%
- GI % (SF-539): 24.5%
- GI % (NCI-H226): 10.6%
